In patent US8211929B2, “Pyrimidine derivatives as kinase modulators and method of use” (Exelixis, Inc., priority 2004, dated 2012):
Where two headings read alike, the source gives them in different places.

What was measured:
IGF 3P = molecular target: T1, IGF 3P (Homo sapiens, UniProt P08069); assay: IGF1R kinase assay (LCCA), IGF 3P; format: biochemical
T1 construct: human IGF1R kinase domain residues M954-C1367; made in house; host or cells: baculovirus expression (insect cells)
Protocol: (§1) Kinase activity and compound inhibition are investigated using one or more of the three assay formats described below. The ATP concentrations for each assay are selected to be close to the Michaelis-Menten constant (KM) for each individual kinase. Dose-response experiments are performed at 10 different inhibitor concentrations in a 384-well plate format. […] Y=Min+(Max−Min)/(1+(X/IC50)^H) Equation (2)
(§2) IGF1R kinase biochemical activity was assessed using a Luciferase-Coupled Chemiluminescent Kinase assay (LCCA) format. Kinase activity was measured as the percent ATP remaining following the kinase reaction. Remaining ATP was detected by luciferase-luciferin-coupled chemiluminescence. Specifically, the reaction was initiated by mixing test compounds, 3 μM ATP, 4 μM poly EY peptide and 4 nM IGF1R (baculovirus expressed human IGF1R kinase domain residues M954-C1367) in a 20 uL assay buffer (20 mM Tris-HCL pH7.5, 10 mM MgCl2, 0.02% Triton X-100, 1 mM DTT, 2 mM MnCl2). The mixture is incubated at ambient temperature for 2 hours after which 20 uL luciferase-luciferin mix is added and the chemiluminescent signal read using a Wallac Victor^2 reader.

[1] = molecular target: T2, (Homo sapiens, UniProt P08069); assay: IGF1R kinase assay (LCCA), IGF 0P; format: biochemical
T2 construct: human IGF1R kinase domain residues M954-C1367; made in house; host or cells: baculovirus expression (insect cells)
Protocol: as §1, §2

T1 sequence (P08069 954-1367): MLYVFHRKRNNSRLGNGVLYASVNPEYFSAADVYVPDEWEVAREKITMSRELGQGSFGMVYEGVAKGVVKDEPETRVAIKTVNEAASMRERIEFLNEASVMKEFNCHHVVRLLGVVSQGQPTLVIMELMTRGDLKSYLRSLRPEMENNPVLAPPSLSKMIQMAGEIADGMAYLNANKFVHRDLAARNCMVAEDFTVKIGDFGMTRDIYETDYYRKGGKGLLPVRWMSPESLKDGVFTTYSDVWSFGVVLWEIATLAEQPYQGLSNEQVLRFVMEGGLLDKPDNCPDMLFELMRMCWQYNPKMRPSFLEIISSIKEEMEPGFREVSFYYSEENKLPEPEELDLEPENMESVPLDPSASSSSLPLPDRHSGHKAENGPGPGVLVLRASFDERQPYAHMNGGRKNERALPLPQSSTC
T2 sequence (P08069 954-1367): as above

| SMILES | IC50 (IGF 3P) | IC50 [1] | IC50 (IGF 3P; IGF1R kinase LCCA assay) | IC50 ([1]; IGF1R kinase LCCA assay) |
| --- | --- | --- | --- | --- |
| CN1CCN(c2cc(Nc3cc(C4CC4)[nH]n3)nc(NCc3cc(-c4ccccn4)no3)n2)CC1 [Example 611, N^4-(5-cyclopropyl-1H-pyrazol-3-yl)-6-(4-methylpiperazin-1-yl)-N^2-[(3-pyridin-2-ylisoxazol-5-yl)methyl]pyrimidine-2,4-diamine] | < 50 nM | 50 to 500 nM | – | – |
| Brc1cnc(Nc2ccc(N3CCOCC3)cc2)nc1Nc1cc(-c2ccco2)[nH]n1 [Example 80] | – | – | 50 to 500 nM | 50 to 500 nM |
| FC(F)(F)Oc1ccc(Nc2ncc(Br)c(Nc3cc(C4CC4)[nH]n3)n2)c(Br)c1 [Example 237] | – | – | 500 to 5000 nM | > 5000 nM |
| c1ccc(-c2cc(CNc3nc(NCCN4CCCCC4)cc(Nc4cc(C5CC5)[nH]n4)n3)on2)cc1 [Example 516] | – | – | < 50 nM | 50 to 500 nM |
| Cc1cc(Nc2cc(C(C)C)[nH]n2)nc(NCc2cc(C(C)C)no2)n1 [Example 526] | – | – | < 50 nM | 500 to 5000 nM |
| Cc1cc(Nc2cc(C3CC3)n[nH]2)nc(Nc2ccc(CCC(=O)NCCCN3CCCCC3)cc2)n1 [Example 51] | – | – | < 50 nM | > 5000 nM |
| CN(C)C(=O)Oc1cccc(Nc2ncc(Br)c(Nc3cc(C4CC4)n[nH]3)n2)c1 [Example 35] | – | – | 50 to 500 nM | 50 to 500 nM |
| Cc1cc(Nc2cc(N3CCN(C)CC3)nc(NCc3cc(-c4ccccc4)no3)n2)[nH]n1 [Example 618, 6-(4-methylpiperazin-1-yl)-N^4-(3-methyl-1H-pyrazol-5-yl)-N^2-[(3-phenylisoxazol-5-yl)methyl]pyrimidine-2,4-diamine] | < 50 nM | 50 to 500 nM | – | – |
| CN1CCN(c2cc(Nc3cc(C4CC4)n[nH]3)nc(NCc3cc(-c4cncnc4)no3)n2)CC1 [Example 642, N^4-(3-cyclopropyl-1H-pyrazol-5-yl)-6-(4-methylpiperazin-1-yl)-N^2-[(3-pyrimidin-5-ylisoxazol-5-yl)methyl]pyrimidine-2,4-diamine] | < 50 nM | 50 to 500 nM | – | – |
| Fc1cc(F)cc(Nc2ncc(Br)c(Nc3cc(C4CC4)n[nH]3)n2)c1 [Example 313] | – | – | > 5000 nM | > 5000 nM |
| Cc1cnc(Nc2ccc(C(=O)NC3CCN(C)CC3)cc2)nc1Nc1cc(C2CC2)n[nH]1 [Example 157] | – | – | 500 to 5000 nM | 500 to 5000 nM |
| Cc1cc(Nc2cc(C3CC3)n[nH]2)nc(Nc2ccc3c(c2)CN(C(=O)OC(C)(C)C)CC3)n1 [Example 565] | – | – | 500 to 5000 nM | 500 to 5000 nM |
| Clc1cc(Cl)cc(Nc2ncc(Br)c(Nc3cc(C4CC4)n[nH]3)n2)c1 [Example 303] | – | – | > 5000 nM | > 5000 nM |
| Cc1cc(Nc2nc(Nc3ccccc3)ncc2Br)[nH]n1 [Example 90] | – | – | 50 to 500 nM | 500 to 5000 nM |
| Brc1cnc(NCc2nccs2)nc1Nc1cc(C2CC2)[nH]n1 [Example 179] | – | – | 500 to 5000 nM | 500 to 5000 nM |
| CN(C)C(=O)CCc1ccc(Nc2ncc(Br)c(Nc3cc(C4CC4)n[nH]3)n2)cc1 [Example 76] | – | – | 50 to 500 nM | 50 to 500 nM |
| Fc1ccc(-c2cc(CNc3nc(Nc4cc(C5CC5)n[nH]4)cc(N4CCOCC4)n3)on2)cc1 [Example 604, N^4-(3-cyclopropyl-1H-pyrazol-5-yl)-N^2-{[3-(4-fluorophenyl)isoxazol-5-yl]methyl}-6-morpholin-4-ylpyrimidine-2,4-diamine] | < 50 nM | 50 to 500 nM | – | – |
| Brc1cnc(Nc2ccccc2N2CCOCC2)nc1Nc1cc(C2CC2)n[nH]1 [Example 260] | – | – | > 5000 nM | > 5000 nM |
| Clc1ccccc1Nc1ncc(Br)c(Nc2cc[nH]n2)n1 [Example 192] | – | – | 500 to 5000 nM | 500 to 5000 nM |
| O=C(c1ccccc1)c1ccccc1Nc1ncc(Br)c(Nc2cc(C3CC3)n[nH]2)n1 [Example 335] | – | – | > 5000 nM | > 5000 nM |
| CCN(CC)CCCNc1cc(Nc2cc(C(C)C)[nH]n2)nc(NCc2cc(-c3ccccc3)no2)n1 [Example 495] | – | – | < 50 nM | 50 to 500 nM |
| CC(C)c1cc(CNc2nc(NCCN3CCN(C)CC3)cc(Nc3cc(C(C)C)[nH]n3)n2)on1 [Example 558] | – | – | < 50 nM | 50 to 500 nM |
| Brc1cnc(NCc2cc(-c3ccccc3)no2)nc1Nc1cc(C2CCCC2)n[nH]1 [Example 189] | – | – | 500 to 5000 nM | 50 to 500 nM |
| Nc1ncnc2c1c(-c1cccc(OCc3ccccc3)c1)cn2C1CCCCC1 [Example 350] | – | – | 500 to 5000 nM | > 5000 nM |

| SMILES | IC50 (IGF 3P) | IC50 [1] | IC50 (IGF 3P; IGF1R kinase LCCA assay) | IC50 ([1]; IGF1R kinase LCCA assay) |
| --- | --- | --- | --- | --- |
| Cc1cc(Nc2cc(C3CC3)[nH]n2)nc(NCc2cc(-c3ccc(F)cc3)no2)n1 [Example 500] | – | – | < 50 nM | 50 to 500 nM |
| CN1CCN(c2cc(Nc3cc(C4CC4)[nH]n3)nc(NCc3cc(-c4ccoc4)no3)n2)CC1 [Example 629, N^4-(5-cyclopropyl-1H-pyrazol-3-yl)-N^2-[(3-furan-3-ylisoxazol-5-yl)methyl]-6-(4-methylpiperazin-1-yl)pyrimidine-2,4-diamine] | < 50 nM | 50 to 500 nM | – | – |
| COc1cc(Nc2nc(C)cc(Nc3cc(C4CC4)[nH]n3)n2)cc(OC)c1 [Example 261] | – | – | > 5000 nM | 500 to 5000 nM |
| CCc1cc(CNc2nc(Nc3cc(C4CC4)n[nH]3)cc(OCCN(C)C)n2)on1 [Example 657, N^4-(3-cyclopropyl-1H-pyrazol-5-yl)-6-{[2-(dimethylamino)ethyl]oxy}-N^2-[(3-ethylisoxazol-5-yl)methyl]pyrimidine-2,4-diamine] | < 50 nM | 50 to 500 nM | – | – |
| c1ncc(-c2cc(CNc3nc(Nc4cc(C5CC5)n[nH]4)cc(N4CCOCC4)n3)on2)cn1 [Example 643, N^4-(3-cyclopropyl-1H-pyrazol-5-yl)-6-morpholin-4-yl-N^2-[(3-pyrimidin-5-ylisoxazol-5-yl)methyl]pyrimidine-2,4-diamine] | 50 to 500 nM | 50 to 500 nM | – | – |
| Cc1cc(Nc2cc(N3CCOCC3)nc(NCc3cc(C)no3)n2)[nH]n1 [Example 627, N^2-[(3-methylisoxazol-5-yl)methyl]-N^4-(3-methyl-1H-pyrazol-5-yl)-6-morpholin-4-ylpyrimidine-2,4-diamine] | 50 to 500 nM | 500 to 5000 nM | – | – |
| FC(F)(F)Oc1ccccc1Nc1ncc(Br)c(Nc2cc(C3CC3)n[nH]2)n1 [Example 84] | – | – | 50 to 500 nM | 50 to 500 nM |
| Cc1cc(Nc2cc(C3CC3)n[nH]2)nc(Nc2ccc(CCN3CCCC3)cc2)n1 [Example 551] | – | – | 50 to 500 nM | 500 to 5000 nM |
| Brc1cnc(NCCC(c2ccccc2)c2ccccc2)nc1Nc1cc(C2CC2)[nH]n1 [Example 328] | – | – | > 5000 nM | > 5000 nM |
| CC(=O)N1CCN(c2cc(Nc3cc(C4CC4)[nH]n3)nc(NCc3cc(C(C)C)no3)n2)CC1 [Example 614, 6-(4-acetylpiperazin-1-yl)-N^4-(5-cyclopropyl-1H-pyrazol-3-yl)-N^2-{[3-(1-methylethyl)isoxazol-5-yl]methyl}pyrimidine-2,4-diamine] | < 50 nM | 50 to 500 nM | – | – |
| O=S(=O)(c1ccc(Nc2ncc(Br)c(Nc3cc(C4CC4)n[nH]3)n2)cc1)N1CCOCC1 [Example 140] | – | – | 50 to 500 nM | 500 to 5000 nM |
| Nc1cccc(Nc2nc(NCc3cc(-c4ccccc4)no3)ncc2Br)n1 [Example 291] | – | – | > 5000 nM | > 5000 nM |
| Cc1cc(CNc2nc(Nc3cc(C4CC4)[nH]n3)cc(NC3CC4CCC(C3)N4C)n2)on1 (stereo not shown) [Example 630, N^4-(5-cyclopropyl-1H-pyrazol-3-yl)-N^6-(8-methyl-8-azabicyclo[3.2.1]oct-3-yl)-N^2-[(3-methylisoxazol-5-yl)methyl]pyrimidine-2,4,6-triamine] | < 50 nM | 50 to 500 nM | – | – |
| CN1CCN(c2nc(NCc3cc(-c4ccccc4)no3)nc(Nc3cc(C4CC4)n[nH]3)c2Cl)CC1 [Example 625, 5-chloro-N^4-(3-cyclopropyl-1H-pyrazol-5-yl)-6-(4-methylpiperazin-1-yl)-N^2-[(3-phenylisoxazol-5-yl)methyl]pyrimidine-2,4-diamine] | 50 to 500 nM | 50 to 500 nM | – | – |
| Fc1c(Cl)cccc1Nc1ncc(Br)c(Nc2cc(C3CC3)n[nH]2)n1 [Example 241] | – | – | 500 to 5000 nM | 500 to 5000 nM |
| CC(C)c1cc(CNc2nc(Nc3cc(C4CC4)[nH]n3)cc(N3CCN(S(C)(=O)=O)CC3)n2)on1 [Example 615, N^4-(5-cyclopropyl-1H-pyrazol-3-yl)-N^2-{[3-(1-methylethyl)isoxazol-5-yl]methyl}-6-[4-(methylsulfonyl)piperazin-1-yl]pyrimidine-2,4-diamine] | < 50 nM | 50 to 500 nM | – | – |
| Brc1cnc(NCC2CCCO2)nc1Nc1cc(C2CC2)n[nH]1 (stereo not shown) [Example 201] | – | – | 500 to 5000 nM | > 5000 nM |
| O=C(Nc1ncc(Br)c(Nc2cc(C3CC3)[nH]n2)n1)c1ccccc1Cl [Example 279] | – | – | > 5000 nM | > 5000 nM |
| Cc1cc(Nc2cc(C3CC3)n[nH]2)nc(Nc2ccc(C3CCNCC3)cc2)n1 [Example 553] | – | – | 500 to 5000 nM | 500 to 5000 nM |
| CC(C)CNc1ncc(Br)c(Nc2cc(C3CC3)[nH]n2)n1 [Example 118] | – | – | 50 to 500 nM | 500 to 5000 nM |
| CCN(CC)CCNC(=O)CCc1ccc(Nc2nc(C)cc(Nc3ccccc3)n2)cc1 [Example 310] | – | – | > 5000 nM | > 5000 nM |
| CC(C)c1cc(Nc2cc(N3CCN(C)CC3)nc(NCc3cc(-c4ccccc4)no3)n2)n[nH]1 [Example 497] | – | – | < 50 nM | 50 to 500 nM |
| NS(=O)(=O)c1ccc(Nc2ncc(Br)c(Nc3cc(C4CC4)n[nH]3)n2)cc1 [Example 91] | – | – | 50 to 500 nM | 50 to 500 nM |
